# According to US20100056497A1, “AMIDE DERIVATIVE” (DAINIPPON SUMITOMO PHARMA CO., LTD, priority 2007, published 2010):
# pIC50: −log10 of the molar value. Where a name gives a salt, the structure may show the parent alone.
# Test system: plasma renin activity / blood pressure
# Experiment: not given
# Details: clinical test in patients with hypertension; cited from earlier work
Compound,hypotensive activity,plasma renin activity
COCCCOc1cc(C[C@@H](C[C@H](N)[C@@H](O)C[C@H](C(=O)NCC(C)(C)C(N)=O)C(C)C)C(C)C)ccc1OC [aliskiren],excellent hypotensive activity comparable to other RA system inhibitors,significantly inhibits plasma renin activity

# Biological target: T1, Recombinant human renin (Homo sapiens, UniProt P00797)
# T1 sequence (P00797 67-406): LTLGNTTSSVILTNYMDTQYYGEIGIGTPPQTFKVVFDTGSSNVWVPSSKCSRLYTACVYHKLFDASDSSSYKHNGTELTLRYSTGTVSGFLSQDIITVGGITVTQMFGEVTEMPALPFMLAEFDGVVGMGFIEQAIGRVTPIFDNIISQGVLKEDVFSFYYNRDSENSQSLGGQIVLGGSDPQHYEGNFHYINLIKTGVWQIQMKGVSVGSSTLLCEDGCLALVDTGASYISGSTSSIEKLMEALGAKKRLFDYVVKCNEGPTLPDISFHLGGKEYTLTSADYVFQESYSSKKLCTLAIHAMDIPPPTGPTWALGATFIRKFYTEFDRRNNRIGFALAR
# Experiment: In vitro renin inhibitory activity assay (fluorescence, FRET peptide substrate)
# Assay type: biochemical
# Details: 37° C., one hour, substrate 4 μM, pH 7.4
# Procedure: In Vitro Renin Inhibitory Activity Assay
# Recombinant human renin (50 ng) was reacted in 0.1M BEPES buffer (pH 7.4) containing 0.1M NaCl, 1 mM EDTA and 0.1 mg/mL BSA together with a substrate and a test compound at 37° C. for one hour. As the substrate, Arg-Glu(EDANS)-Ile-His-Pro-Phe-His-Leu-Val-Ile-His-Thr-Lys(DABCYL)-Arg or DABCYL-γ-Abu-Ile-His-Pro-Phe-His-Leu-Val-Ile-His-Thr-EDANS was added in such an amount so that the final concentration thereof became 4 μM. The elevated fluorescence intensity at the exciting wavelength 340 nm and the fluorescence wavelength 500 nm was measured by a fluorescence plate reader. The concentration of a test compound to be needed to inhibit an enzyme activity in the presence of a test compound in plural concentrations by 50% was calculated as an IC50 value.
# The amino acid sequence disclosed in Seq ID:1 is an amino acid sequence used in the renin inhibitory activity assay.
# The amino acid sequence disclosed in Seq ID:2 is an amino acid sequence used in the renin inhibitory activity assay.
row,Compound,pIC50
1,"CCCN(CC1CC1)C(=O)C[C@H]1CC[C@@H](N(C(=O)c2ccc(OC)c(OCCCOC)c2)C(C)C)CN1 (racemic) [Example 20, N-((rac.)-(3R,6R)-6-{2-[(Cyclopropylmethyl)(propyl)amino]-2-oxoethyl}piperidin-3-yl)-N-isopropyl-4-methoxy-3-(3-methoxypropoxy)benzamide hydrochloride]",6.38
2,"COCCCOc1cc(C(=O)N(C(C)C)[C@@H]2CC[C@H](CCN(C(=O)C=C(C)C)C3CC3)NC2)ccc1OC [Example 68, N-((3R,6R-6-{2-[Cyclopropyl(3-methyl-2-butenoyl)amino]ethyl}piperidin-3-yl)-N-isopropyl-4-methoxy-3-(3-methoxypropoxy)benzamide hydrochloride]",8.17
3,"COCCCOc1cc(C(=O)N(C(C)C)[C@@H]2CCCNC2)c(C)cc1OC [Example 27, N-Isopropyl-4-methoxy-5-(3-methoxypropoxy)-2-methyl-N-[(3R)-piperidin-3-yl]-benzamide]",6.72
4,"COCCCOc1cc(C(=O)N(C(C)C)[C@@H]2CC[C@H](CC(=O)NC3CC3)NC2)ccc1OC (racemic) [Example 52, N-{ (rac.)-(3R,6R)-6-[2-(Cyclopropylamino)-2-oxoethyl]piperidin-3-yl)-N-isopropyl-4-methoxy-3-(3-methoxypropoxy)benzamide hydrochloride]",6.23

# The remaining lines, values ahead:
row,pIC50,Compound
1,6.11,"COCCCOc1cc(C(=O)N(C(C)C)[C@H]2CNC[C@@H](CNC(=O)OCc3ccccc3)C2)ccc1OC (racemic) [Example 43, Benzyl [((rac.)-(3S,5R)-5-{isopropyl[4-methoxy-3-(3-methoxypropoxy)benzoyl]-amino}piperidin-3-yl)methyl]carbamate hydrochloride]"
2,6.16,"COCCCOc1cc(C(=O)N(C(C)C)[C@@H]2CC[C@H](CCN(C(=O)Cc3ccccc3)C(C)C)NC2)ccc1OC (racemic) [Example 55, N-Isopropyl-N-((rac.)-(3R,6R)-6-{2-[isopropyl(phenylacetyl)amino]ethyl}piperidin-3-yl)-4-methoxy-3-(3-methoxypropoxy)benzamide hydrochloride]"
3,6.48,"COCCCOc1cc(C(=O)N(C(C)C)[C@@H]2CCCNC2)ccc1OC [Example 1, N-Isopropyl-4-methoxy-3-(3-methoxypropoxy)-N-[(3R)-piperidin-3-yl]benzamide hydrochloride]"
4,6.96,CCCN(CCc1ccccc1)C(=O)OC[C@@H]1CNC[C@H](N(C(=O)c2ccc(OC)c(OCCCOC)c2)C(C)C)C1 (racemic) [Example 59]
5,8.33,"COCCCOc1cc(C(=O)N(C(C)C)[C@@H]2CC[C@H](CCN(C(=O)Cc3ccccn3)C3CC3)NC2)ccc1OC [Example 75, N-((3R,6R)-6-{2-[Cyclopropyl(pyridin-2-ylacetyl)amino]ethyl}piperidin-3-yl)-N-isopropyl-4-methoxy-3-(3-methoxypropoxy)benzamide trifluoroacetate]"
